{
  "source": "paper PMC6894747",
  "about": "(PLoS Pathogens, 2019)",
  "key": {"T20-resistant strains": {"test_system": "T20-resistant strains", "assay": "Inhibition of T20-resistant HIV-1 variants, average", "assay_type": "cell-based", "settings": "comparison with CP24", "protocol": "(§2) Briefly, 1×10^5/mL MT-2 or M7 cells were infected with different HIV-1 viruses at 100 TCID50 (50% tissue culture infective dose) in the presence or absence of peptides at graded concentrations overnight. Then the culture supernatants were replaced with equal volume of fresh medium. On the fourth day post-infection, supernatants were collected and mixed with equal volume of 5% Triton X-100. […] The IC50 values were calculated with CalcuSyn software [35–36], and inhibition curves of best fit were generated with GraphPad Prism."}, "ICR mice": {"test_system": "ICR mice", "assay": "Safety of IBP-CP24 for ICR mice", "assay_type": "in vivo", "settings": "for serum ALT level / serum creatinine level: i.p., CP24 10 mg/kg, IBP-CP24 10 or 100 mg/kg, before and 5 h, 1, 4 days post-injection", "method": "Body weight changes of mice at different time points were monitored. Creatinine and ALT in the sera were measured by using the creatinine and ALT assay kits (NJJCBIO, Nanjing, China) before injection and 5 h, 1, and 4 days post-injection, respectively. All mice were sacrificed at day 15 post-injection, and the livers and kidneys were collected for haematoxylin and eosin (H&E) staining."}, "[1]": {"test_system": "cell-cell fusion between H9/HIV-1IIIB and MT-2 cells", "settings": "IC50 comparison with CP24", "protocol": "The inhibitory activity of peptides against cell-cell fusion between H9/HIV-1IIIB and MT-2 cells was detected, as described previously [3, 81]. Briefly, H9/HIV-1IIIB cells were labeled with a fluorescent reagent, Calcein AM (Molecular Probes, Inc., Eugene, Oregon), and then incubated with MT-2 cells (ratio = 1:10) in a 96-well plate at 37 °C for 2 h in the presence of a test peptide at graded concentrations or PBS as a control. The fused and unfused Calcein-labeled HIV-1-infected cells were counted under an inverted fluorescence microscope (Zeiss, Germany). Three fields of each well were counted and the percentage of inhibition of cell fusion by peptides was calculated as described previously [81]. The IC50 values of fusion were calculated using the CalcusSn software [36] and the inhibition curves of best fit were generated with GraphPad Prism."}, "HIV-1 IIIB [2]": {"test_system": "HIV-1 IIIB", "assay": "Ex vivo anti-HIV-1 activity of sera from treated mice", "assay_type": "in vivo", "settings": "BALB/c mice, i.p., N6 3.2 mg/kg and/or IBP-CP24 1.8 mg/kg", "method": "The ex vivo anti-HIV-1 activity of a peptide or a bNAb or their combination in serum samples from mice treated with the peptide or bNAb was detected as described previously. […] Sera were collected from these mice at 2 and 8 h post-injection and tested for their inhibitory activity against HIV-1IIIB infection as described above. The dilution fold of the serum causing 50% inhibition (DF-IC50) was calculated."}, "HIV-1 JR-CSF [3]": {"test_system": "HIV-1 JR-CSF", "assay": "Inhibitors alone or in combination against HIV-1 JR-CSF", "assay_type": "cell-based", "method": "(§1) The samples were serially diluted and tested for their inhibitory activity on HIV-1 infection as described above. The data were analyzed for synergistic effect by calculating the combination index (CI) with the CalcuSyn software. CI values of <0.95 and >1.05 indicate synergy and antagonism, respectively. CI <0.1, 0.1–0.3, 0.3–0.7, 0.7–0.85, and 0.85–0.90 indicate very strong synergism, strong synergism, synergism, moderate synergism, and slight synergism, respectively. Fold of dose reduction was calculated with the ratio of concentrations of inhibitor testing alone and in combination."}, "rhesus monkey IgG": {"biological_target": "rhesus monkey IgG", "assay": "ELISA binding to rhesus monkey IgG", "settings": "ELISA on peptide-coated plate; one site specific binding fit; ± SE, three replicates per point; read-out: Estimated Kd of binding to rhesus monkey IgG", "method": "Next, different concentrations of human or rhesus monkey IgG were added to the peptide-coated plate and incubated at 37 °C for 1 h. Rabbit anti-human IgG-HRP (1:3000 diluted) was added to each well and incubated at 37 °C for another 1 h. Afterwards, the bound IgG-HRP was detected by addition of the HRP substrate TMB. The reaction was terminated by addition of 1 M H2SO4 50 μL. Absorbance at 450 nm was measured using an ELISA reader (Ultra 384; Tecan, Research Triangle Park, NC).\nThe data was fitted to the “one site – specific binding” using GraphPad Prism. The standard error (SE) is given for a sample size of three replicates per data point."}, "[4]": {"test_system": "H9/HIV-1IIIB target cells with PBMC effector cells", "assay": "ADCC assay, 10E8-mediated lysis", "assay_type": "cell-based, human", "settings": "peptide up to 20 μM added to 10E8", "method": "H9/HIV-1IIIB cells expressing HIV-1 Env (2.5 × 10^4 cells) as the target cells were seeded into a 96-well plate (25 μL/well), and the mixture of a serially diluted inhibitors and 10E8 (1.5 μg/mL) was added to the culture plate. PBMC (AllCells) as effector cells (2.5 × 10^4 cells in 25 μL) were cocultured with the mixture-treated target cells at 37 °C overnight, and the […] activity was measured using the CytoTox-ONE Homogeneous Membrane Integrity Assay (Promega)."}, "HIV-1 clinical strains": {"test_system": "HIV-1 clinical strains", "assay_type": "cell-based", "settings": "8 clinical strains", "protocol": "as §2"}, "HIV-1 JR-CSF [5]": {"test_system": "HIV-1 JR-CSF", "assay": "Prophylactic efficacy against HIV-1 challenge in humanized mice", "assay_type": "in vivo, humanized NRG (NRG-hu HSC) mice", "settings": "for cell-associated HIV-1 DNA and RNA in spleen and bone marrow: day 28 post-infection, real-time PCR; for mice HIV-1 viremia-positive at 7 dpi / mice with viremia at 14 dpi / viral load at 7 dpi: humanized mice; for mice HIV-1 viremia-positive at 7 dpi: 20 mg/kg i.p. 2 h before challenge, 6 h post-infection and daily for 3 days, CP24 n = 8, IBP-CP24 n = 7; for mice with viremia at 14 dpi / viral load at 7 dpi: 20 mg/kg i.p. prophylactic regimen; for viral load at 7 dpi: plasma HIV-1 RNA", "method": "The mice were challenged with HIV-1 JR-CSF (5 ng p24/mouse) through retro-orbital injection at 2 h post-treatment. Then the mice were treated with PBS or peptides at 6 hours post-infection and once every day for 3 consecutive days. Plasma samples were obtained for viral load determination at days 0, 7, 14, 21 and 28 post-infection.\nHIV-1 genomic RNA was purified from plasma by using the QIAamp Viral RNA Mini Kit. The RNA was reverse-transcribed and quantitatively detected by real-time PCR with the TaqMan Fast Virus 1-Step PCR kit (Thermo Fisher Scientific). We used the forward primer 5’-[…]-3’ and the reverse primer 5’-[…]-3’ to detect the HIV gag gene. The probe (FAM-[…]-QSY7) used for detection was ordered from Applied Biosystems, and the reactions were set up following the manufacturer’s guidelines and were run on the QuantStudio 6 Flex PCR system (Applied Biosystems). The limit of detection of each real-time PCR was 4 copies per reaction. Accordingly, owing to the relatively small volume of plasma in mice (about 50–100 μL total blood), the limit of detection was 400 copies/mL plasma. The copy numbers below the detectable limit were set as 1. Triplicate reactions were performed for each sample.\nTo evaluate cell-associated HIV-1 DNA, total DNA was extracted from mouse spleen and bone marrow cells using the DNeasy Mini Kit (Qiagen). HIV-1 DNA was quantified by real-time PCR. DNA from serial dilutions of ACH2 cells, which contain 1 copy of the HIV genome in each cell, was used to create a standard curve.\nTo detect cell-associated HIV-1 RNA, total cell RNA was extracted from mouse spleen and bone marrow cells using the RNeasy Plus Mini Kit (Qiagen). The RNA was reverse-transcribed to cDNA and then quantified by real-time PCR, as described above. DNA from serial dilutions of ACH2 cells was used to generate a standard curve."}, "HIV-1 IIIB [6]": {"test_system": "HIV-1 IIIB", "assay": "Inhibitors alone or in combination against HIV-1 IIIB", "assay_type": "cell-based", "settings": "mixture N6 / IBP-CP24, HIV-1 IIIB", "method": "as §1"}, "Pseudoviruses": {"test_system": "Pseudoviruses", "assay": "Inhibition of pseudotyped HIV-1 infection, panel average", "assay_type": "cell-based", "settings": "average IC50 of 12 pseudotyped strains", "description": "HIV-1 pseudoviruses were generated, as described previously."}},
  "note": "Positions of bridges follow the written chain, without caps; N, C: chain ends. Residues, ends and D or L forms follow the SMILES beside them. No end group written: not given here.",
  "data": [
    {"molecule": "CC[C@H](C)[C@H](NC(=O)[C@H](CC(C)C)NC(=O)[C@H](CCC(=O)O)NC(=O)[C@H](CCC(=O)O)NC(=O)[C@@H](NC(=O)[C@H](CCCCN)NC(=O)[C@H](CCCCN)NC(=O)[C@@H](NC(=O)[C@H](Cc1ccc(O)cc1)NC(=O)[C@H](CCC(=O)O)NC(=O)[C@H](CCC(=O)O)NC(=O)[C@@H](NC(=O)[C@H](CCCCN)NC(=O)[C@H](CCCCN)NC(=O)[C@H](CC(=O)O)NC(=O)[C@H](Cc1c[nH]c2ccccc12)NC(=O)[C@H](CCC(=O)O)NC(=O)[C@H](CCC(=O)O)NC(=O)[C@H](Cc1c[nH]c2ccccc12)NC(=O)[C@@H](NC(=O)[C@H](CCSC)NC(=O)[C@@H](NC(=O)[C@@H]1CSSC[C@H](NC(=O)[C@@H](N)CC(=O)O)C(=O)N[C@@H](C)C(=O)N[C@@H](Cc2c[nH]c3ccccc23)C(=O)N[C@@H](Cc2c[nH]cn2)C(=O)N[C@@H](CC(C)C)C(=O)NCC(=O)N[C@@H](CCC(=O)O)C(=O)N[C@@H](CC(C)C)C(=O)N[C@@H](C(C)C)C(=O)N[C@@H](Cc2c[nH]c3ccccc23)C(=O)N1)[C@@H](C)O)[C@@H](C)O)[C@@H](C)CC)[C@@H](C)O)[C@@H](C)CC)C(=O)N[C@@H](CCCCN)C(=O)N[C@@H](CCCCN)C(=O)N[C@@H](CO)C(=O)O", "note": "[IBP-CP24] (H-DCAWHLGELVWCTMTWEEWDKKIEEYTKKIEELIKKS-OH; disulfide 2-12; N-terminus and C-terminus assumed)", "values": [
      {"measurement": "average IC50 fold of that of CP24, T20-resistant strains", "setting": "T20-resistant strains", "result": "about 1.5 fold"},
      {"measurement": "in vivo toxicity, overall", "setting": "ICR mice; 10 and 100 mg/kg i.p.", "result": "no obvious in vivo toxicity"},
      {"measurement": "H&E stained sections of liver and kidneys", "setting": "ICR mice; day 15 post-injection, versus PBS", "result": "no pathological abnormality"},
      {"measurement": "serum ALT level", "setting": "ICR mice; versus PBS", "result": "no significant difference"},
      {"measurement": "serum creatinine level", "setting": "ICR mice; versus PBS", "result": "no significant difference"},
      {"measurement": "fold of CP24 in cell-cell fusion inhibition", "setting": "[1]", "result": "about 1.2 fold"},
      {"measurement": "DF-IC50 (dilution fold of serum causing 50% inhibition of HIV-1 IIIB infection)", "setting": "HIV-1 IIIB [2]; sera 2 h post-injection", "result": 35},
      {"measurement": "DF-IC50 (dilution fold of serum causing 50% inhibition of HIV-1 IIIB infection)", "setting": "HIV-1 IIIB [2]; sera 8 h post-injection", "result": 16},
      {"measurement": "Dose reduction", "setting": "HIV-1 JR-CSF [3]; mixture 10E8 / IBP-CP24, HIV-1 JR-CSF", "result": 9.0, "unit": "fold"},
      {"measurement": "Dose reduction", "setting": "HIV-1 JR-CSF [3]; mixture C34 / IBP-CP24, HIV-1 JR-CSF", "result": 0.4, "unit": "fold"},
      {"measurement": "Dose reduction", "setting": "HIV-1 JR-CSF [3]; mixture VRC07 / IBP-CP24, HIV-1 JR-CSF", "result": 4.4, "unit": "fold"},
      {"measurement": "Kd", "setting": "rhesus monkey IgG", "result": 557, "unit": "nM"},
      {"measurement": "effect on 10E8-mediated lytic activity", "setting": "[4]", "result": "remained about the same"},
      {"measurement": "average IC50 fold of that of CP24, clinical strains", "setting": "HIV-1 clinical strains; comparison with CP24", "result": "~1.1", "unit": "fold"},
      {"measurement": "average IC50 fold of that of T20, clinical strains", "setting": "HIV-1 clinical strains; comparison with T20", "result": "about 2.5 fold"},
      {"measurement": "cell-associated HIV-1 DNA and RNA in spleen and bone marrow", "setting": "HIV-1 JR-CSF [5]", "result": "undetectable"},
      {"measurement": "mice HIV-1 viremia-positive at 7 dpi", "setting": "HIV-1 JR-CSF [5]", "result": 28.5, "unit": "%"},
      {"measurement": "mice with viremia at 14 dpi", "setting": "HIV-1 JR-CSF [5]", "result": 28.5, "unit": "%"},
      {"measurement": "viral load at 7 dpi", "setting": "HIV-1 JR-CSF [5]", "result": "about 2.5 log10 copies/mL"},
      {"measurement": "Dose reduction", "setting": "HIV-1 IIIB [6]", "result": 3.6, "unit": "fold"},
      {"measurement": "fold more potent than CP24, pseudotyped strains", "setting": "Pseudoviruses", "result": "~4.9", "unit": "fold"},
      {"measurement": "fold more potent than T20, pseudotyped strains", "setting": "Pseudoviruses", "result": "about 24.2 fold"}
    ]},
    {"molecule": "MTWEEWDKKIEEYTKKIEELIKKS [CP24, reference compound]", "values": [
      {"measurement": "serum ALT level", "setting": "ICR mice; versus PBS", "result": "no significant difference"},
      {"measurement": "serum creatinine level", "setting": "ICR mice; versus PBS", "result": "no significant difference"},
      {"measurement": "effect on 10E8-mediated lytic activity", "setting": "[4]", "result": "remained about the same"},
      {"measurement": "cell-associated HIV-1 DNA and RNA in spleen and bone marrow", "setting": "HIV-1 JR-CSF [5]", "result": "high levels"},
      {"measurement": "mice HIV-1 viremia-positive at 7 dpi", "setting": "HIV-1 JR-CSF [5]", "result": 50, "unit": "%"},
      {"measurement": "mice with viremia at 14 dpi", "setting": "HIV-1 JR-CSF [5]", "result": 62.5, "unit": "%"},
      {"measurement": "viral load at 7 dpi", "setting": "HIV-1 JR-CSF [5]", "result": "about 3.6 log10 copies/mL"}
    ]}
  ]
}
